Measurements: patent publication US12459951B2, “Compounds that interact with RAS superfamily proteins for treatment of cancers, inflammatory diseases, rasopathies, and fibrotic disease” (SHY Therapeutics, LLC, priority 2022, dated 2025)
Like-named read-outs stand apart in the source and are kept apart here.

Assays:
[1] = test system: MiaPaca-2 (expressing KRAS G12C mutant); experiment: Proliferation Assay (Cell Viability Assay); assay type: cell-based; details: Homo sapiens, MIA PaCa-2
Method in brief: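 MiaPaca-2 cells (KRAS G12C) were grown in DMEM-high glucose with 10% FBS, seeded at 2000–5000 cells/well and cultured overnight. Compounds were added at 10 μM final, or as serial dilutions for IC50, in 0.3% DMSO/10% FBS for 2–4 days at 37 °C, 5% CO2. Viability was measured with CellTiter 96 Aqueous One and % inhibition calculated.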

[2] = test system: KRas G12C mutant; experiment: Ras GTP Binding Domain Inhibition Assay (Ras Superfamily Assay); details: 20 μM compound
Method in brief: (§1)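 His-tagged GTPases immobilised on nickel-coated plates, pre-incubated with compound (20 μM single point, or serial dilution for IC50) 3 h at room temperature, with or without 10-30 μg/mL Sos (residues 556-1049) in the final hour. Bound Cy3- or Cy5-GTP (100 nM, 45 min) measured by fluorescence after washing.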

[3] = test system: KRas wild type; experiment: as above; details: for KRas wild type + SOS: % inh.: with SOS; for KRas wild type: % inh.: without SOS
Method in brief: as §1

[4] = target: T1, Rac-1 (Homo sapiens, UniProt P63000); experiment: as above; details: read-out: Rac-1: % inh.
T1 construct: made in house
Method in brief: as §1

[5] = read-out: Proliferation in MiaPaca-2: IC50

SMILES: CO[C@H]1CC[C@@H](Nc2nc(-c3ccccn3)nn3cc(-c4ccn(C(C)C)n4)c(-c4ccccc4)c23)C1 (racemic) [Compound 24, rac 6-(1-Isopropyl-1H-pyrazol-3-yl)-N-((1R,3S)-3-methoxycyclopentyl)-5-phenyl-2-(pyridin-2-yl)pyrrolo[2,1-f][1,2,4]triazin-4-amine]
- IC50 [1, 5]: > 1000 nM
- KRas G12C mutant + SOS: % inh. ([2]; with SOS): 0 (0 = 0% inhibition)
- KRas G12C mutant: % inh. ([2]; without SOS): 0 (0 = 0% inhibition)
- KRas wild type + SOS: % inh. ([3]; 20 μM compound): 0 (0 = 0% inhibition)
- KRas wild type: % inh. ([3]; 20 μM compound): 0 (0 = 0% inhibition)
- inhibition at 20 µM [4]: 0%

SMILES: Cc1c(-c2ccn(C)n2)cn2nc(-c3nccn3C)nc(-n3[nH]c(N)cc3=O)c12 [Compound 261, 5-Amino-2-(5-methyl-2-(1-methyl-1H-imidazol-2-yl)-6-(1-methyl-1H-pyrazol-3-yl)pyrrolo[2,1-f][1,2,4]triazin-4-yl)-1,2-dihydro-3H-pyrazol-3-one]
- IC50 [1, 5]: > 1000 nM
- KRas wild type + SOS: % inh. ([3]; at 20 μM): C (C = 50-75% inhibition)
- KRas wild type: % inh. ([3]; at 20 μM): C (C = 50-75% inhibition)
- inhibition at 20 µM [4]: 76 to 100%

SMILES: Cc1c(-c2ccn(C)n2)cn2nc(-c3nccn3C)nc(Oc3cc(N)[nH]n3)c12 [Compound 262, 3-((5-Methyl-2-(1-methyl-1H-imidazol-2-yl)-6-(1-methyl-1H-pyrazol-3-yl)pyrrolo[2,1-f][1,2,4]triazin-4-yl)oxy)-1H-pyrazol-5-amine]
- IC50 [1, 5]: > 1000 nM
- KRas wild type + SOS: % inh. ([3]; at 20 μM): C (C = 50-75% inhibition)
- KRas wild type: % inh. ([3]; at 20 μM): B (B = 26-49% inhibition)
- inhibition at 20 µM [4]: 50 to 75%

SMILES: Cc1c(-c2ccn(C)n2)cn2nc(-c3nccn3C)nc(Nc3cc(-c4ccccc4)[nH]n3)c12 [Compound 263, 5-Methyl-2-(1-methyl-1H-imidazol-2-yl)-6-(1-methyl-1H-pyrazol-3-yl)-N-(5-phenyl-1H-pyrazol-3-yl)pyrrolo[2,1-f][1,2,4]triazin-4-amine]
- IC50 [1, 5]: < 150 nM
- KRas wild type + SOS: % inh. ([3]; at 20 μM): D (D = 76-100% inhibition)
- KRas wild type: % inh. ([3]; at 20 μM): C (C = 50-75% inhibition)
- inhibition at 20 µM [4]: 76 to 100%

SMILES: Cc1c(-c2ccn(C)n2)cn2nc(-c3nccn3C)nc(Nc3cc(-c4cccnc4)[nH]n3)c12 [Compound 264, 5-Methyl-2-(1-methyl-1H-imidazol-2-yl)-6-(1-methyl-1H-pyrazol-3-yl)-N-(5-(pyridin-3-yl)-1H-pyrazol-3-yl)pyrrolo[2,1-f][1,2,4]triazin-4-amine]
- IC50 [1, 5]: 150 to 500 nM
- KRas wild type + SOS: % inh. ([3]; at 20 μM): D (D = 76-100% inhibition)
- KRas wild type: % inh. ([3]; at 20 μM): C (C = 50-75% inhibition)
- inhibition at 20 µM [4]: 76 to 100%

SMILES: Cc1c(-c2ccn(C)n2)cn2nc(-c3nccn3C)nc(Nc3cc(-c4ccccn4)[nH]n3)c12 [Compound 265, 5-Methyl-2-(1-methyl-1H-imidazol-2-yl)-6-(1-methyl-1H-pyrazol-3-yl)-N-(5-(pyridin-2-yl)-1H-pyrazol-3-yl)pyrrolo[2,1-f][1,2,4]triazin-4-amine]
- IC50 [1, 5]: < 150 nM
- KRas wild type + SOS: % inh. ([3]; at 20 μM): D (D = 76-100% inhibition)
- inhibition at 20 µM [4]: 76 to 100%

SMILES: Cc1c(-c2ccn(C)n2)cn2nc(-c3nccn3C)nc(Nc3cc(-c4ccncc4)[nH]n3)c12 [Compound 266, 5-Methyl-2-(1-methyl-1H-imidazol-2-yl)-6-(1-methyl-1H-pyrazol-3-yl)-N-(5-(pyridin-4-yl)-1H-pyrazol-3-yl)pyrrolo[2,1-f][1,2,4]triazin-4-amine]
- IC50 [1, 5]: < 150 nM
- KRas wild type + SOS: % inh. ([3]; at 20 μM): C (C = 50-75% inhibition)
- KRas wild type: % inh. ([3]; at 20 μM): D (D = 76-100% inhibition)
- inhibition at 20 µM [4]: 76 to 100%

SMILES: Cc1[nH]nc(Nc2nc(-c3nccn3C)nn3cc(-c4ccn(C)n4)c(C)c23)c1C [Compound 267, N-(4,5-Dimethyl-1H-pyrazol-3-yl)-5-methyl-2-(1-methyl-1H-imidazol-2-yl)-6-(1-methyl-1H-pyrazol-3-yl)pyrrolo[2,1-f][1,2,4]triazin-4-amine]
- IC50 ([1]; Proliferation assay, MiaPaca-2, read-out: MiaPaca-2 IC50 (nM) Pancreatic): 1 to 10 nM
- IC50 [1, 5]: < 150 nM
- KRas wild type + SOS: % inh. ([3]; at 20 μM): D (D = 76-100% inhibition)
- KRas wild type: % inh. ([3]; at 20 μM): D (D = 76-100% inhibition)
- inhibition at 20 µM [4]: 76 to 100%

SMILES: Cc1c(-c2ccn(C)n2)cn2nc(-c3nccn3C)nc(Nc3cc(C(C)C)[nH]n3)c12 [Compound 268, N-(5-Isopropyl-1H-pyrazol-3-yl)-5-methyl-2-(1-methyl-1H-imidazol-2-yl)-6-(1-methyl-1H-pyrazol-3-yl)pyrrolo[2,1-f][1,2,4]triazin-4-amine]
- IC50 [1, 5]: < 150 nM
- KRas wild type + SOS: % inh. ([3]; at 20 μM): D (D = 76-100% inhibition)
- KRas wild type: % inh. ([3]; at 20 μM): C (C = 50-75% inhibition)
- inhibition at 20 µM [4]: 76 to 100%

SMILES: COc1cccc(-c2cn3nc(-c4nccn4C)nc(N[C@H]4C[C@@H](OC)C4)c3c2-c2ccccc2)c1C [Compound 269, 6-(3-Methoxy-2-methylphenyl)-N-((1s,3s)-3-methoxycyclobutyl)-2-(1-methyl-1H-imidazol-2-yl)-5-phenylpyrrolo[2,1-f][1,2,4]triazin-4-amine]
- IC50 [1, 5]: 510 to 1000 nM
- KRas wild type + SOS: % inh. ([3]; at 20 μM): A (A = 1-25% inhibition)
- KRas wild type: % inh. ([3]; at 20 μM): C (C = 50-75% inhibition)
- inhibition at 20 µM [4]: 26 to 49%

SMILES: COc1ccc(F)c(-c2cn3nc(-c4nccn4C)nc(N[C@H]4C[C@H](OC)C4)c3c2-c2ccccc2)c1F [Compound 273, 6-(2,6-Difluoro-3-methoxyphenyl)-N-((1r,3r)-3-methoxycyclobutyl)-2-(1-methyl-1H-imidazol-2-yl)-5-phenylpyrrolo[2,1-f][1,2,4]triazin-4-amine]
- IC50 [1, 5]: > 1000 nM
- KRas wild type + SOS: % inh. ([3]; at 20 μM): A (A = 1-25% inhibition)
- KRas wild type: % inh. ([3]; at 20 μM): 0 (0 = 0% inhibition)
- inhibition at 20 µM [4]: 1 to 25%

SMILES: COc1cccc(-c2cn3nc(-c4nccn4C)nc(N[C@H]4C[C@H](OC)C4)c3c2-c2ccccn2)c1C [Compound 274, 6-(3-Methoxy-2-methylphenyl)-N-((1r,3r)-3-methoxycyclobutyl)-2-(1-methyl-1H-imidazol-2-yl)-5-(pyridin-2-yl)pyrrolo[2,1-f][1,2,4]triazin-4-amine]
- IC50 [1, 5]: 150 to 500 nM
- KRas wild type + SOS: % inh. ([3]; at 20 μM): 0 (0 = 0% inhibition)
- KRas wild type: % inh. ([3]; at 20 μM): 0 (0 = 0% inhibition)
- inhibition at 20 µM [4]: 0%

SMILES: CO[C@H]1C[C@H](Nc2nc(-c3nccn3C)nn3cc(-c4ccn(C)n4)c(C4CC4)c23)C1 [Compound 275, 5-Cyclopropyl-N-((1r,3r)-3-methoxycyclobutyl)-2-(1-methyl-1H-imidazol-2-yl)-6-(1-methyl-1H-pyrazol-3-yl)pyrrolo[2,1-f][1,2,4]triazin-4-amine]
- IC50 [1, 5]: > 1000 nM
- KRas wild type + SOS: % inh. ([3]; at 20 μM): 0 (0 = 0% inhibition)
- KRas wild type: % inh. ([3]; at 20 μM): A (A = 1-25% inhibition)
- inhibition at 20 µM [4]: 1 to 25%

SMILES: COc1ccnc(Nc2nc(-c3nccn3C)nn3cc(-c4ccn(C)n4)c(C4CC4)c23)c1 [Compound 276, 5-Cyclopropyl-N-(4-methoxypyridin-2-yl)-2-(1-methyl-1H-imidazol-2-yl)-6-(1-methyl-1H-pyrazol-3-yl)pyrrolo[2,1-f][1,2,4]triazin-4-amine]
- IC50 [1, 5]: 150 to 500 nM
- KRas wild type + SOS: % inh. ([3]; at 20 μM): D (D = 76-100% inhibition)
- KRas wild type: % inh. ([3]; at 20 μM): D (D = 76-100% inhibition)
- inhibition at 20 µM [4]: 76 to 100%
